Measured values as given in PMC12521730, “Quantitative dual-isotope preclinical SPECT/CT imaging and biodistribution of the mercury-197m/g theranostic pair with [^197m/gHg]HgCl2 and a [^197m/gHg]Hg-tetrathiol complex as a platform for radiopharmaceutical development” (EJNMMI Radiopharmacy and Chemistry, 2025).

Test: Ex vivo biodistribution (gamma counter)
Format: in vivo, healthy male C57BL/6 mice
Details: Hg-197m, 2 h post administration
Experimental: For animal injection, the tracer was prepared at high molar activity. Radiolabeling of H4Tetrathiol (10^–2 M in DMSO; 40 μL for imaging, 20 μL for bioD) (or DMSO, for [^197m/gHg]HgCl2 mice) with [^197m/gHg]HgCl2 (imaging: 26.7 MBq total m + g, 62 μL; bioD: 13.04 MBq total m + g, 31 μL) was performed in a mixture of ammonium acetate buffer (1 M; pH 7; 198 μL for imaging or 149 μL for bioD) and 6 M NaOH (72 μL or 38 μL required to achieve a pH of 7.5 after addition of activity, for imaging or BioD labeling, respectively). The reaction was allowed to stand for 1 h at 37 °C and quantitative (> 99%) non-isolated percentage radiochemical yield (%RCY) was confirmed via the iTLC methods mentioned above. Further, 100 µL of the reaction was diluted with 50 µL of PBS Tween-20 (0.01 M sodium phosphate, 0.15 M NaCl, 0.05% Tween-20) for imaging mice, or 50 µL of the reaction was diluted with 100 µL of PBS Tween-20 for BioD mice. The tracers were prepared immediately before injection to avoid radiolysis and minimize the tracer loss to any surfaces due to its lipophilicity. The injected doses of each isomer, ^197mHg and ^197gHg, were quantified by measuring an aliquot of known volume of each tracer preparation via HPGe gamma spectroscopy and decay corrected for time of injection using the Eqs. (1) and (2).
The study was conducted in compliance with the guidelines set by the Canadian Council on Animal Care (CCAC) and approved by the Animal Care Committee (ACC) at the University of British Columbia (A20-0132). A total of eight healthy male C57BL/6 mice weighing approximately 30 g for group 1 and 25 g for group 2 were used in the study. The mice were divided into two experimental groups: group 1 (n = 4) received free [^197m/gHg]HgCl2, while group 2 (n = 4) received [^197m/gHg]Hg-Tetrathiol. Within each group, one mouse was allocated for imaging, while the rest were designated for ex vivo biodistribution analysis. For SPECT imaging, the designated mice were anesthetized using isoflurane via a precision vaporizer. […] Once anesthetized, each imaging mouse received an intravenous (IV) injection via the lateral tail vein of 150 μL of [^197m/gHg]HgCl2 (0.492 MBq ^197mHg + 3.171 MBq ^197gHg) or [^197m/gHg]Hg-Tetrathiol (0.899 MBq ^197mHg + 4.230 MBq ^197gHg) in PBS Tween-20 (0.01 M Na Phosphate, 0.15 M NaCl, 0.05% Tween-20).
Mice received an IV injection of [^197m/gHg]HgCl2 (0.275 MBq ^197mHg + 1.758 MBq ^197gHg, 150 μL) or [^197m/gHg]Hg-Tetrathiol (0.384 MBq ^197mHg + 1.733 MBq ^197gHg, 150 μL) (n = 3 per group) via the lateral tail vein using a Tailveiner restrainer. After the injection, the mice were returned to their experimental cages and allowed unrestricted movement. Biodistribution studies were conducted 2 h after administration. Mice were humanely euthanized with an overdose of isoflurane followed by cardiac puncture to collect blood pool activity. The organs of interest were fully extracted, cleaned of blood without rinsing, weighed, and analysed for radioactivity using a calibrated gamma counter with the 55–93 keV energy window for ^197gHg and the 110–160 keV energy window for ^197mHg (Packard Cobra II, Perkin Elmer, Waltham, MA, USA). The stomach and intestines were carefully cleaned prior to analysis to remove residual contents. For tissues and fluids that could not be fully removed (muscle, blood and bone) activity values were extrapolated based on standardised organ weights for age- and sex-matched mice tables to ensure accurate normalization (Davies and Morris [1993]; Foster et al. [2014]). The stomach and whole intestines were cleaned before analysis. The radioactivity measurements were decay corrected for time of injection using the Eqs. (1) and (2). The results are reported as the percentage of the injected activity per gram of tissue (%IA/g) and percentage of the injected activity per tissue (%IA/organ).

Structure (SMILES): O=C(CC[S-])OCC(COC(=O)CC[S-])(COC(=O)CC[S-])COC(=O)CC[S-].[Hg+2] [[^197m/gHg]Hg-Tetrathiol]
- Animal 2 (%IA/g) m: blood: 0.13 %IA/g
- Animal 2 (%IA/g) m: bone: 1.62 %IA/g
- Animal 2 (%IA/g) m: brain: 0.02 %IA/g
- Animal 2 (%IA/g) m: feces: 0.05 %IA/g
- Animal 2 (%IA/g) m: heart: 0.59 %IA/g
- Animal 2 (%IA/g) m: kidneys: 2.35 %IA/g
- Animal 2 (%IA/g) m: large intestine: 0.05 %IA/g
- Animal 2 (%IA/g) m: lungs: 7.04 %IA/g
- Animal 2 (%IA/g) m: muscle: 0.02 %IA/g
- Animal 2 (%IA/g) m: pancreas: 0.04 %IA/g
- Animal 2 (%IA/g) m: small intestine: 0.08 %IA/g
- Animal 2 (%IA/g) m: spleen: 79.95 %IA/g
- Animal 2 (%IA/g) m: stomach: 0.37 %IA/g
- Animal 2 (%IA/g) m: tail: 1.39 %IA/g
- Animal 2 (%IA/g) m: urine: 0.03 %IA/g
- Animal 3 (%IA/g) m: bladder: 0.04 %IA/g
- Animal 3 (%IA/g) m: blood: 0.15 %IA/g
- Animal 3 (%IA/g) m: bone: 1.38 %IA/g
- Animal 3 (%IA/g) m: brain: 0.04 %IA/g
- Animal 3 (%IA/g) m: feces: 0.01 %IA/g
- Animal 3 (%IA/g) m: heart: 0.70 %IA/g
- Animal 3 (%IA/g) m: kidneys: 3.71 %IA/g
- Animal 3 (%IA/g) m: large intestine: 0.12 %IA/g
- Animal 3 (%IA/g) m: lungs: 9.69 %IA/g
- Animal 3 (%IA/g) m: muscle: 0.02 %IA/g
- Animal 3 (%IA/g) m: pancreas: 0.09 %IA/g
- Animal 3 (%IA/g) m: small intestine: 0.10 %IA/g
- Animal 3 (%IA/g) m: spleen: 108.27 %IA/g
- Animal 3 (%IA/g) m: stomach: 1.02 %IA/g
- Animal 3 (%IA/g) m: tail: 0.66 %IA/g
- Animal 3 (%IA/g) m: urine: 0.03 %IA/g
- Animal 4 (%IA/g) m: bladder: 0.07 %IA/g
- Animal 4 (%IA/g) m: blood: 0.12 %IA/g
- Animal 4 (%IA/g) m: bone: 1.62 %IA/g
- Animal 4 (%IA/g) m: brain: 0.02 %IA/g
- Animal 4 (%IA/g) m: feces: 0.01 %IA/g
- Animal 4 (%IA/g) m: heart: 0.64 %IA/g
- Animal 4 (%IA/g) m: kidneys: 3.03 %IA/g
- Animal 4 (%IA/g) m: large intestine: 0.05 %IA/g
- Animal 4 (%IA/g) m: lungs: 7.69 %IA/g
- Animal 4 (%IA/g) m: muscle: 0.02 %IA/g
- Animal 4 (%IA/g) m: pancreas: 0.05 %IA/g
- Animal 4 (%IA/g) m: small intestine: 0.15 %IA/g
- Animal 4 (%IA/g) m: spleen: 101.18 %IA/g
- Animal 4 (%IA/g) m: stomach: 0.12 %IA/g
- Animal 4 (%IA/g) m: tail: 7.32 %IA/g
- Animal 4 (%IA/g) m: urine: 0.04 %IA/g
- Average Hg-197m (%IA/g): bladder: 0.044 %IA/g
- Average Hg-197m (%IA/g): blood: 0.13 %IA/g
- Average Hg-197m (%IA/g): bone: 1.68 %IA/g
- Average Hg-197m (%IA/g): brain: 0.028 %IA/g
- Average Hg-197m (%IA/g): feces: 0.026 %IA/g
- Average Hg-197m (%IA/g): heart: 0.60 %IA/g
- Average Hg-197m (%IA/g): kidneys: 3.65 %IA/g
- Average Hg-197m (%IA/g): large intestine: 0.091 %IA/g
- Average Hg-197m (%IA/g): lungs: 8.38 %IA/g
- Average Hg-197m (%IA/g): muscle: 0.017 %IA/g
- Average Hg-197m (%IA/g): pancreas: 0.056 %IA/g
- Average Hg-197m (%IA/g): small intestine: 0.12 %IA/g
- Average Hg-197m (%IA/g): spleen: 91.06 %IA/g
- Average Hg-197m (%IA/g): stomach: 0.42 %IA/g
- Average Hg-197m (%IA/g): tail: 2.77 %IA/g
- Average Hg-197m (%IA/g): urine: 0.033 %IA/g
